In patent US12534457B2, “Heteroaryl derivative compounds, and uses thereof” (Voronoi Inc., priority 2021, dated 2026) one finds GI50 data, which are given here for 25 compounds.

The first assay has as its system Ba/F3 cells expressing EGFR Del19/C797S (EGFR DC). In words: Proliferation inhibitory activity, Ba/F3 cells expressing EGFR Del19/C797S (CellTiter-Glo). The class given is cell-based. The conditions noted are these: 72 hours of compound treatment. In outline:
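Viability after 72 h of compound exposure was measured by luminescence (CellTiter-Glo) in Ba/F3 lines transduced with mutant EGFR. Final concentrations spanned 0.2 nM–5 μM over 12 threefold steps. Growth relative to untreated control gave GI50 values; each test was run three times.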
(In general: In ATP-based viability assays light output follows the ATP content of the culture.)
`COc1cc(N2CCC(N3CCCN(C)CC3)CC2)ccc1Nc1cc(N2OCC[C@@H]2c2cccc(F)c2F)ncn1` [Example 221]: the GI50 was < 50 nM.

Still in this assay, the particulars now being: Mus musculus, BaF3, 72 hours of compound treatment.
Take `CN1CCN(c2ccc(Nc3cc(N4OCC[C@@H]4c4ccccc4)ncn3)cc2)CC1` [Example 1, (R)—N-(4-(4-methylpiperazin-1-yl)phenyl)-6-(3-phenylisoxazolidin-2-yl)pyrimidin-4-amine]: the GI50 is < 50 nM.

Take `COc1cc(N2CCC(N3CCN(C)CC3)CC2)ccc1Nc1cc(N2OCC[C@@H]2c2ccccc2)ncn1` [Example 5, (R)—N-(2-methoxy-4-(4-(4-methylpiperazin-1-yl)piperidin-1-yl)phenyl)-6-(3-phenylisoxazolidin-2-yl)pyrimidin-4-amine]: the 50% growth inhibitory concentration (GI50) was < 50 nM.

Consider `COc1cc(N2CCC(N3CCN(C4CC4)CC3)CC2)ccc1Nc1cc(N2OCC[C@@H]2c2cc(F)cc(F)c2)ncn1` [Example 6, (R)—N-(4-(4-(4-cyclopropylpiperazin-1-yl)piperidin-1-yl)-2-methoxyphenyl)-6-(3-(3,5-difluorophenyl)isoxazolidin-2-yl)pyrimidin-4-amine], for which the 50% growth inhibitory concentration (GI50) was 50 to 500 nM.

As for `COc1cc(N2CCC(N3CCN(CC4CC4)CC3)CC2)ccc1Nc1cc(N2OCC[C@@H]2c2cccc(F)c2F)ncn1` [Example 210, (R)—N-(4-(4-(4-(cyclopropylmethyl)piperazin-1-yl)piperidin-1-yl)-2-methoxyphenyl)-6-(3-(2,3-difluorophenyl)isoxazolidin-2-yl)pyrimidin-4-amine], the concentration for 50% growth inhibition (GI50) was < 50 nM.

With `COc1cc(N2CCC(N3CC4(CN(C)C4)C3)CC2)ccc1Nc1cc(N2OCC[C@@H]2c2cccc(F)c2F)ncn1` [Example 211, (R)-6-(3-(2,3-difluorophenyl)isoxazolidin-2-yl)-N-(2-methoxy-4-(4-(6-methyl-2,6-diazaspiro[3.3]heptan-2-yl)piperidin-1-yl)phenyl)pyrimidin-4-amine], the GI50 is < 50 nM.

Take `COc1cc(N2CCC(N3CC[C@@H](N(C)C)C3)CC2)ccc1Nc1cc(N2OCC[C@@H]2c2cccc(F)c2F)ncn1` [Example 212, 6-((R)-3-(2,3-difluorophenyl)isoxazolidin-2-yl)-N-(4-(4-((R)-3-(dimethylamino)pyrrolidin-1-yl)piperidin-1-yl)-2-methoxyphenyl)pyrimidin-4-amine]: the GI50 is < 50 nM.

Regarding `COc1cc(N2CCC(N3CCN(C)[C@H](C)C3)CC2)ccc1Nc1cc(N2OCC[C@@H]2c2cccc(F)c2F)ncn1` [Example 213, 6-((R)-3-(2,3-difluorophenyl)isoxazolidin-2-yl)-N-(4-(4-((R)-3,4-dimethylpiperazin-1-yl)piperidin-1-yl)-2-methoxyphenyl)pyrimidin-4-amine], the GI50 is < 50 nM.

For the compound `COc1cc(N2CCC(N3CCN(C)[C@@H](C)C3)CC2)ccc1Nc1cc(N2OCC[C@@H]2c2cccc(F)c2F)ncn1` [Example 214, 6-((R)-3-(2,3-difluorophenyl)isoxazolidin-2-yl)-N-(4-(4-((S)-3,4-dimethylpiperazin-1-yl)piperidin-1-yl)-2-methoxyphenyl)pyrimidin-4-amine], the GI50 was < 50 nM.

As to `CCN1[C@H](C)CN(C2CCN(c3ccc(Nc4cc(N5OCC[C@@H]5c5cccc(F)c5F)ncn4)c(OC)c3)CC2)C[C@@H]1C` [Example 215, 6-((R)-3-(2,3-difluorophenyl)isoxazolidin-2-yl)-N-(4-(4-((3S,5R)-4-ethyl-3,5-dimethylpiperazin-1-yl)piperidin-1-yl)-2-methoxyphenyl)pyrimidin-4-amine], the 50% growth inhibitory concentration (GI50) was < 50 nM.

For the compound `COc1cc(N2CCC(N3CCN(C)C[C@@H]3C)CC2)ccc1Nc1cc(N2OCC[C@@H]2c2cccc(F)c2F)ncn1` [Example 216, 6-((R)-3-(2,3-difluorophenyl)isoxazolidin-2-yl)-N-(4-(4-((S)-2,4-dimethylpiperazin-1-yl)piperidin-1-yl)-2-methoxyphenyl)pyrimidin-4-amine], the concentration for 50% growth inhibition (GI50) is < 50 nM.

Consider `COc1cc(N2CCC(N3CCN(C)C[C@H]3C)CC2)ccc1Nc1cc(N2OCC[C@@H]2c2cccc(F)c2F)ncn1` [Example 217, 6-((R)-3-(2,3-difluorophenyl)isoxazolidin-2-yl)-N-(4-(4-((R)-2,4-dimethylpiperazin-1-yl)piperidin-1-yl)-2-methoxyphenyl)pyrimidin-4-amine], for which the GI50 was < 50 nM.

With `COc1cc(N2CC(N3CCN(C)CC3)C2)ccc1Nc1cc(N2OCC[C@@H]2c2cccc(F)c2F)ncn1` [Example 218, (R)-6-(3-(2,3-difluorophenyl)isoxazolidin-2-yl)-N-(2-methoxy-4-(3-(4-methylpiperazin-1-yl)azetidin-1-yl)phenyl)pyrimidin-4-amine], the 50% growth inhibitory concentration (GI50) is < 50 nM.

In the case of `CCN1C2CC1CN(C1CCN(c3ccc(Nc4cc(N5OCC[C@@H]5c5cccc(F)c5F)ncn4)c(OC)c3)CC1)C2` [Example 219, 6-((R)-3-(2,3-difluorophenyl)isoxazolidin-2-yl)-N-(4-(4-(6-ethyl-3,6-diazabicyclo[3.1.1]heptan-3-yl)piperidin-1-yl)-2-methoxyphenyl)pyrimidin-4-amine], the 50% growth inhibitory concentration (GI50) was < 50 nM.

For the compound `CCN1CC2CC(C1)N2C1CCN(c2ccc(Nc3cc(N4OCC[C@@H]4c4cccc(F)c4F)ncn3)c(OC)c2)CC1` [Example 220, 6-((R)-3-(2,3-difluorophenyl)isoxazolidin-2-yl)-N-(4-(4-(3-ethyl-3,6-diazabicyclo[3.1.1]heptan-6-yl)piperidin-1-yl)-2-methoxyphenyl)pyrimidin-4-amine], the concentration for 50% growth inhibition (GI50) is < 50 nM.

With `COc1cc(N2CCC(N3CCN(C(C)C)CC3)CC2)ccc1Nc1cc(N2OCC[C@@H]2c2cccc(F)c2F)ncn1` [Example 222, (R)-6-(3-(2,3-difluorophenyl)isoxazolidin-2-yl)-N-(4-(4-(4-isopropylpiperazin-1-yl)piperidin-1-yl)-2-methoxyphenyl)pyrimidin-4-amine], the GI50 was < 50 nM.

Take `COc1cc(N2CCC(N3CCN(C)C(=O)C3)CC2)ccc1Nc1cc(N2OCC[C@@H]2c2cccc(F)c2F)ncn1` [Example 224, (R)-4-(1-(4-((6-(3-(2,3-difluorophenyl)isoxazolidin-2-yl)pyrimidin-4-yl)amino)-3-methoxyphenyl)piperidin-4-yl)-1-methylpiperazin-2-one]: the GI50 was < 50 nM.

Turning to `CN1CCN(c2ccc(Nc3cc(N4Oc5ccccc5C4c4ccccc4)ncn3)cc2)CC1` (stereo not shown) [Example 229, N-(4-(4-methylpiperazin-1-yl)phenyl)-6-(3-phenylbenzo[d]isoxazol-2(3H)-yl)pyrimidin-4-amine], the GI50 is 50 to 500 nM.

Take `COc1cc(N2CCC(N3CCN(C)CC3)CC2)ccc1Nc1cc(N2Oc3ccccc3C2c2ccccc2)ncn1` (stereo not shown) [Example 230, N-(2-methoxy-4-(4-(4-methylpiperazin-1-yl)piperidin-1-yl)phenyl)-6-(3-phenylbenzo[d]isoxazol-2 (3H)-yl)pyrimidin-4-amine]: the GI50 is 50 to 500 nM.

As for `CN1CCN(c2ccc(Nc3cc(N4OCC5(CC5)[C@@H]4c4ccccc4)ncn3)cc2)CC1` [Example 231, (S)—N-(4-(4-methylpiperazin-1-yl)phenyl)-6-(7-phenyl-5-oxa-6-azaspiro[2.4]heptan-6-yl)pyrimidin-4-amine], the GI50 is 50 to 500 nM.

On to `COc1cc(N2CCC(N3CCN(C)CC3)CC2)ccc1Nc1cc(N2OCC3(CC3)[C@@H]2c2ccccc2)ncn1` [Example 233, (S)—N-(2-methoxy-4-(4-(4-methylpiperazin-1-yl)piperidin-1-yl)phenyl)-6-(7-phenyl-5-oxa-6-azaspiro[2.4]heptan-6-yl)pyrimidin-4-amine], for which the GI50 was < 50 nM.

For `COc1cc(N2CCC(N3CCN(C)CC3)CC2)ccc1Nc1cc(N2OCC3(CC3)[C@H]2c2ccccc2)ncn1` [Example 234, (R)—N-(2-methoxy-4-(4-(4-methylpiperazin-1-yl)piperidin-1-yl)phenyl)-6-(7-phenyl-5-oxa-6-azaspiro[2.4]heptan-6-yl)pyrimidin-4-amine], the GI50 lay within 50 to 500 nM.

For the compound `CC(C)[C@H]1CCON1c1cc(Nc2ccc(N3CCN(C)CC3)cc2)ncn1` [Example 235, (R)-6-(3-isopropylisoxazolidin-2-yl)-N-(4-(4-methylpiperazin-1-yl)phenyl)pyrimidin-4-amine], the 50% growth inhibitory concentration (GI50) is < 50 nM.

Take `COc1cc(N2CCC(N3CCN(CCS(C)(=O)=O)CC3)CC2)ccc1Nc1cc(N2OCC[C@@H]2c2cccc(F)c2F)ncn1` [Example 237, (R)-6-(3-(2,3-difluorophenyl)isoxazolidin-2-yl)-N-(2-methoxy-4-(4-(4-(2-(methylsulfonyl)ethyl)piperazin-1-yl)piperidin-1-yl)phenyl)pyrimidin-4-amine]: the GI50 was < 50 nM.

With `CN(C)C1CCN(c2ccc(Nc3cc(N4OCC[C@@H]4c4ccccc4)ncn3)nc2)CC1` [Example Compound 138, (R)-N-(5-(4-(dimethylamino)piperidin-1-yl)pyridin-2-yl)-6-(3-phenylisoxazolidin-2-yl)pyrimidin-4-amine], the concentration for 50% growth inhibition (GI50) was < 50 nM.

The test system of the next assay is Ba/F3 cells expressing EGFR L858R/C797S (EGFR LC). In words: Proliferation inhibitory activity, Ba/F3 cells expressing EGFR L858R/C797S (CellTiter-Glo). The conditions noted are these: Mus musculus, BaF3, 72 hours of compound treatment. The format is cell-based. The method, then:
The following experiments were performed to evaluate the inhibitory activity of the compounds according to the present disclosure on Ba/F3 proliferation expressing EGFR C797S, L861Q, G719A, S768I, L718Q, and/or G724S mutations.
For Ba/F3 cells, RPMI-1640 containing 10% FBS and 5 ng/ml IL-3 (R&D Systems) was used. Transduced Ba/F3 cells were cultured after adding 1 μg/ml puromycin (Invitrogen) to the same medium.
At 24 hours before treatment with the compounds, 3000 to 5000 cells were aliquoted into each well of a white clear bottom 96 well plate (Corning). The compounds were diluted in dimethyl sulfoxide (3 times dilution, 12 concentrations in total), and injected in an amount of 1 μl so that the final concentration was 0.2 nM to 5 uM. For measurement of living cells, after 72 hours of compound treatment, the cells were stored at room temperature for 10 min using CellTiter-Glo luminescentcell-viability reagent (Promega), and then luminescence intensity was measured using a reader (SynergyNeo, Biotek). Each test was repeated three times. Result values were calculated as the cell growth rate (%) compared to the control. The graphs were created using GraphPad Prism version 8.3.0 program and the GI50 values were calculated.
With `CN1CCN(c2ccc(Nc3cc(N4OCC[C@@H]4c4ccccc4)ncn3)cc2)CC1` [Example 1, (R)—N-(4-(4-methylpiperazin-1-yl)phenyl)-6-(3-phenylisoxazolidin-2-yl)pyrimidin-4-amine], the GI50 was < 50 nM.

For the compound `COc1cc(N2CCC(N3CCN(C)CC3)CC2)ccc1Nc1cc(N2OCC[C@@H]2c2ccccc2)ncn1` [Example 5, (R)—N-(2-methoxy-4-(4-(4-methylpiperazin-1-yl)piperidin-1-yl)phenyl)-6-(3-phenylisoxazolidin-2-yl)pyrimidin-4-amine], the GI50 was < 50 nM.

Regarding `COc1cc(N2CCC(N3CCN(C4CC4)CC3)CC2)ccc1Nc1cc(N2OCC[C@@H]2c2cc(F)cc(F)c2)ncn1` [Example 6, (R)—N-(4-(4-(4-cyclopropylpiperazin-1-yl)piperidin-1-yl)-2-methoxyphenyl)-6-(3-(3,5-difluorophenyl)isoxazolidin-2-yl)pyrimidin-4-amine], the GI50 lay in the range of 50 to 500 nM.

A word on the GI50: it is the concentration giving 50% growth inhibition.
